In ChEMBL document CHEMBL3507680, “University of Dundee, Gates Library screen for HepG2 cell viability”:

Experiment: Human HepG2 cell viability assay in 384 well format
Assay type: toxicity, cell-based
Parameters: dose 125 nL, time 70.5 hour; concentration not given beside the values
Details: HepG2 cells, read-out: Inhibition

SMILES | cytotoxicity at 70.5 h [%]
CC(C)=CCN1CCN(CCCc2ccccc2)[C@H]2CS(=O)(=O)C[C@H]21 | -6.15
CN1CCN(C(=O)[C@@H]2C[C@@H]3CCN(c4cccc(F)c4)C[C@H]3O2)CC1 | -11.9
COc1ccc(-c2noc([C@@H]3C[C@@H](O)CN3C3CCCCC3)n2)cc1 | -1.99
N#Cc1ccc(NC2CCN(CC(F)F)CC2)c(F)c1 | -15.5
COCCOc1ccccc1C(=O)Nc1c(C)cnn1CC1CC1 | -6.01
Cc1noc(C)c1CN1C[C@@H]2COC[C@H](C(=O)N3CCCCO3)[C@@H]2C1 | -13
Cc1cccc(OC2CCN(C(=O)CNC(=O)N(C)C)CC2)c1 | -0.834
CCOC(=O)CN1CC(c2nc(-c3ccsc3)no2)C1 | 0.957
Cc1csc(C2(NCC(O)COc3ccc(F)cc3)CCC2)n1 (stereo not drawn) | -0.482
Cc1cnc2c(C(=O)N(C)Cc3cc(C4CC4)[nH]n3)cnn2c1 | 31.8
Cc1cc(=O)[nH]c(NC2CCN(S(=O)(=O)c3ccccc3)CC2)n1 | -2.77
CCOc1ccc(C2SCC(=O)Nc3c2c(=O)[nH]n3C(C)C)cc1 (stereo not drawn) | -11.8
CCOCCN1CCN(c2ccc(CN(C)C)cn2)CC1 | -5.47
CCc1ccc(S(=O)(=O)Nc2cc(OC)c(OC)cc2C(=O)O)s1 | 4.71
CCCn1ncc(CN2C[C@@H]3CCCN3C[C@H]2Cc2ccccc2)c1C | 23.6
CC(C)CCNc1nnc(C(C)C)s1 | -3.84
Cc1nn(CCNS(=O)(=O)NCc2ccccc2)c(C)c1Cl | -6.81
COc1ccc(OC)c(Sc2ncccc2C(=O)NCC2CC2)c1 | 24.9
CC(=O)N1CCCC(C(=O)N2CCN(c3cnn(C)c(=O)c3)CC2)C1 (stereo not drawn) | 9.66
COc1cccc2ccc(N3CCC(O)(c4ccc(C)cn4)CC3)nc12 | -21.5
Cn1nc(-c2ccccc2)c(Cl)c1C(=O)O | -25.8
CN(C)CCn1c(=O)oc2ccc(NC(=O)CSc3ccccc3)cc21 | 6.5
CCNC(=O)[C@@H]1C[C@@H](NC(=O)CSC)CN1Cc1ccncc1 | -10.5

SMILES | cytotoxicity at 70.5 h [%]
Cc1nn(C)c2nc(N3CCC(C(O)c4ccccn4)CC3)sc12 (stereo not drawn) | -0.933
C[C@@H]1CN(CC(C)(C)N2CCCCC2)CC[C@@]1(O)C1CC1 | -5.05
O=C(c1ccccn1)N1CCCC(c2nccn2CC2CCC2)C1 (stereo not drawn) | 18.9
CN1CC[C@]2(CN(Cc3cccs3)C[C@H]2c2ccccc2)C1=O | -4.05
CC(=O)NCc1nnn2c1CN(c1ncccn1)CCC2 | -7.48
Cc1noc(NC(=O)c2ccc(Br)o2)n1 | -9.68
CNc1cc2c(nn1)CCN(C(=O)c1ccccc1-n1cccn1)C2 | 47.8
CC(C)(C)OC(=O)N1CCCc2ccc(NCc3ccon3)cc21 | -4.98
CN(C)CC(=O)N1Cc2nnn(C)c2C(COCc2ccccn2)C1 (stereo not drawn) | 9.45
Cc1cc(CNC(=O)C(c2ccc(F)cc2)N(C)C)n[nH]1 (stereo not drawn) | 7.79
COc1ccnc(N2CCCN(C(=O)Cc3ccc(C)s3)CC2)n1 | 22.9
CCC(=O)c1ccc(OCC(=O)NCC2CCCO2)cc1 (stereo not drawn) | 0.0654
Cc1csc(NC(=O)CN2CCc3nn(C)c(=O)cc3C2)n1 | -8.05
CC(=O)c1cccc(NC(=O)Cn2cnc(-c3ccccc3)cc2=O)c1 | -3
COc1ccccc1OC1CCN(Cc2cccnc2)CC1 | -3.86
FC(F)(F)CCc1ncnn1-c1ccc2c(c1)OCO2 | -7.77
O=C(CC1CCc2ccccc21)N1CCC(C(=O)O)(n2ccnc2)CC1 (stereo not drawn) | 22.5
CC(C)C(C(=O)N(C)C)c1cccc(Cl)c1 (stereo not drawn) | -11
CC(C)NC(=O)c1nc(Cn2c(C(F)(F)F)nc3ccccc32)no1 | 14.5
Cc1c(CN2CCC(C(=O)O)(n3cccn3)CC2)oc2ccccc12 | -2.29
Cc1ccc(CN2C[C@@H]3COC[C@H](NS(C)(=O)=O)[C@@H]3C2)o1 | -12.4
NC(=O)c1ccc(N2CCCCC2)c(NC(=O)c2cncc(Br)c2)c1 | -7.05
COc1ccc(C2CCCN2C(=O)c2csc(NC(C)=O)n2)cc1 (stereo not drawn) | -20.6

SMILES | cytotoxicity at 70.5 h [%]
COc1ccccc1OCCN1CCC(N2CCNC2=O)CC1 | 19.7
COc1ccccc1C(NCc1ccc(SC)cc1)c1nccn1C (stereo not drawn) | 11.2
Cc1noc(C)c1CN1CC2(CCCCN2C)CC1=O (stereo not drawn) | 17.1
CC(=O)N1CCC(NC2(Cc3cc(CC(C)C)on3)COC2)CC1 | 3.96
Cc1ncc(-c2ccnc(N3CCCCCC3)n2)c(-c2cccnc2)n1 | -10.6
Nc1ncccc1C(=O)NCc1cccc(Br)c1 | 13.7
CN1CCN(C2CCN(Cc3noc(C4CC4)n3)CC2)C1=O | -1.19
O=C(C1CC1)N1CCc2c(ncnc2N2CCN3CCCC3C2)C1 (stereo not drawn) | 26
CCN(CC)C(=O)[C@@H]1C[C@H](N)CN1c1noc(-c2ccccc2)n1 | -3.04
CNS(=O)(=O)Cc1cccc(CNC(=O)Nc2cn[nH]c2)c1 | -4.03
Cc1ccsc1C(=O)Nc1ccc(N2CCC(O)CC2)c(C#N)c1 | -0.649
CN1C(=O)COc2ccc(NC(=O)CCc3nc4cccnc4[nH]3)cc21 | -9.73
Cc1nc(N2CCN3CCCCC3C2)nc2cc(S(C)(=O)=O)ccc12 (stereo not drawn) | 0.525
Clc1cnccc1N1CCCOCC1 | -5.38
O=C(C(CNCc1cccc(O)c1)c1ccccc1)N1CCOCC1 (stereo not drawn) | -4.48
Cc1nc(C)n(CC(C)C(=O)N2CCCN(C3CCCC3)CC2)n1 (stereo not drawn) | -6.07
C[C@@H]1CN(C2CCOC2)C[C@]12CCN(Cc1cccnc1)C2=O (stereo partly drawn) | -10.6
CC(=O)N1[C@H](CN(C)C)C[C@@H]2CN(C(=O)c3cncc(C)c3)CC[C@@H]21 | -10.6
OCc1cc2ccccc2nc1NCC1(O)CCC1 | -8.77
CC(C)(C)c1noc(CCC(=O)N2CCNC(=O)C2)n1 | 7.96
COc1ccc(CN(Cc2cnn(C)c2)CC(C)C)cn1 | -6.19
CC(C)(C)N1CC(C(=O)N2CC(Oc3ccc(F)cc3)C2)CC1=O (stereo not drawn) | 18.6
COc1ccc(C2CC(=O)Oc3cc(C)[nH]c(=O)c32)cc1O (stereo not drawn) | -19.6

SMILES | cytotoxicity at 70.5 h [%]
CCCOC(=O)N1CCc2cccc(S(=O)(=O)N3CCOCC3)c2C1 | -8.66
CCCc1c(C2CCOC(C)(C)C2)nc(N)c(C#N)c1-c1cnn(C)c1 (stereo not drawn) | -2.75
CCOCCCNC(=O)CN(c1ccc(C)c(C)c1)S(C)(=O)=O | -9.65
O=C(NCc1cnc2n1CCN(Cc1nccs1)CC2)C1CCC1 | -2.78
CC(O)CN1CCN(C(=O)c2ccc(Cn3cccn3)cc2)CC1 (stereo not drawn) | -7.08
Cn1ccnc1C1CCCN(C(=O)c2ccncc2F)C1 (stereo not drawn) | -5.94
Cc1cccc(C)c1CNC1(CCO)CCOCC1 | -16
CC(C)Oc1ccc(C(O)CNCc2ccccc2C(F)(F)F)cc1 (stereo not drawn) | -6.08
CC(C)C(Sc1nnc(C2CC2)n1C1CC1)C(=O)NCc1cccnc1 (stereo not drawn) | -8.64
CN(Cc1cc2cc(F)ccc2[nH]1)C(=O)C1CC(=O)N(C2CCCC2)C1 (stereo not drawn) | -4.53
CCc1nnc2n1CCN(C(=O)c1cc(Cl)c[nH]1)C2 | -1.1
CCOCC1CN(S(=O)(=O)C2CC2)Cc2nn(C)cc21 (stereo not drawn) | -5.98
Cc1nnsc1CN(C)C(=O)c1ccc(CSc2nnc[nH]2)o1 | -10.2
Cc1cc(C(=O)N2CCCC(C(=O)c3nccn3C)C2)c(=O)[nH]c1C (stereo not drawn) | 7.95
c1cnc(N2CCC3(CC2)CN(CC2CC2)c2ccccc23)nc1 | 12.1
Cc1nnc(N2CC[C@@]3(O)CCNC[C@H]3C2)c2ccccc12 | -12.3
O=C1CC2(CCCCN2C(=O)c2ccoc2)CN1Cc1ccccc1 (stereo not drawn) | 3.41
O=C(NC1CCN(C(=O)C2CCCCC2)C1)c1ccncc1Cl (stereo not drawn) | -9.33
O=C1[C@H]2CN(Cc3cccs3)C[C@H]2CN1CCN1CCCC1 | 12
N#Cc1ccc(N2CCC3(CCC(=O)N3Cc3ccncc3)CC2)nc1 | -6.82
O=C(CCc1cscn1)N1CCCC(n2ccnc2)C1 (stereo not drawn) | 2.29
Cc1ccc(CNC2CCc3[nH]c(=O)ccc3C2)cc1C (stereo not drawn) | 2.24
c1cnc(N2CCO[C@H]3[C@H](OCCN4CCCC4)CC[C@@H]32)nc1 | 0.11

SMILES | cytotoxicity at 70.5 h [%]
Cc1nnn2c1COC(CNCc1ccncc1)C2 (stereo not drawn) | -15.7
CCN(Cc1noc(C)n1)C(=O)C(c1ccc(C)cc1)N(C)C (stereo not drawn) | -0.785
COCC1CN(C(=O)Cc2ccccn2)Cc2cn(CC3CC3)nc21 (stereo not drawn) | -14.6
O=C(Cc1csc(-c2ncccn2)n1)N1CCN2CCCCC2C1 (stereo not drawn) | 7.23
CC(NCc1cccc(NC(=O)C2CCCCC2)c1)c1cnn(C)c1 (stereo not drawn) | -9.44
CCOCCOC(C)C(=O)NCc1cn2cc(Cl)ccc2n1 (stereo not drawn) | 15.2
c1cc(-c2cnc(C3CCNCC3)cn2)n[nH]1 | 12.8
CN(CCCNC(=O)N1CCCC1c1ccsc1)c1ccccn1 (stereo not drawn) | 16.8
CC(C)CNC(=O)Cn1cc(C(N)=O)c(-c2ccccc2)n1 | -8.01
O=C(NCc1ccccc1CO)Nc1ccc2c(c1)CCC2 | -1.72
COc1ccc(N2CCN(C(=O)Cn3nccc3C)CC2(C)C)cc1 | -0.615
CCOc1cc(C)nc(N2CCN(Cc3nccn3CC)CC2)n1 | 7.28
CCN1CC(C(=O)NC(C)(C)CC(C)(C)C)CC1=O (stereo not drawn) | -1.71
Cc1cnn(C(C)C2CC2)c1NC(=O)c1ccco1 (stereo not drawn) | -3.4
CCC(C)NC(=O)CS(=O)(=O)Cc1cc(Cl)c2c(c1)OCCCO2 (stereo not drawn) | -5.29
Cc1c[nH]c(C2COCCN2S(=O)(=O)c2cn[nH]c2)n1 (stereo not drawn) | -12.8
CN1CCc2[nH]nc(C(=O)N3CCCC4(CC3)CNC(=O)O4)c2C1 (stereo not drawn) | -3.37
COc1ccc(C)cc1C(=O)N1CCCC(n2cncn2)C1 (stereo not drawn) | -3.25
Cc1nccn1-c1ccc(CN2CC3C[C@@H](O)CN3C[C@@H]2C)cc1 (stereo partly drawn) | -7.07
CNCCc1nc2cc(F)ccc2[nH]1 | -5.66
Cc1cnc(N2CCOC3(CCCN(c4ncccn4)C3)C2)nc1 (stereo not drawn) | -4.18
